Values of other authors as cited in paper PMC10655862 (Methods in enzymology, 2023).
Where two headings read alike, the source gives them in different places.

Assays:
[1] = test system: AKR1D1; details: 5β-reduction, fluorometric, pH 6.0, 37 °C; ref Chen et al., (2011)
[2] = test system: AKR1D1 (5β-reductase); details: ref Chen et al., (2011); for Type of inhibition (5β-reductase): inhibition of testosterone reduction; for inhibition of AKR1D1, in words: reduction of [4-14C]-testosterone
[3] = biological target: AKR1C1; details: AKR1C1, competitive inhibition (C); ref Bauman et al. (2005)
[4] = biological target: AKR1C3; details: AKR1C3, competitive inhibition (C); ref Bauman et al. (2005)
[5] = biological target: AKR1C2; details: AKR1C2, competitive inhibition (C); ref Bauman et al. (2005)
[6] = biological target: 5α-reductase type 2 (SRD5A2); details: ref Bull et al. (1996)
[7] = biological target: aldose reductase AKR1B1; details: NADPH binding to AKR1B1, literature comparison; ref not given

SMILES | Km [1] [µM] | inhibition of AKR1D1, in words [2] | other results
C[C@]12CC[C@H]3[C@@H](CCC4=CC(=O)C=C[C@@]43C)[C@@H]1CC[C@@H]2O [1,4-Androstadien-17β-ol-3-one] | 3.2 ± 0.2 |  | 
O=C(O)c1ccc(C(=O)c2ccccc2)cc1 [4-Benzoylbenzoic acid] |  | ineffective | Type of inhibition (5β-reductase) [2]: n.i.; Ki [3]: 12.5 µM; Ki [4]: 1.9 µM; Ki [5]: 13.3 µM
CC(C)CCC[C@@H](C)[C@H]1CC[C@H]2[C@@H]3[C@H](O)CC4=CC(=O)CC[C@]4(C)[C@H]3CC[C@]12C [4-Cholesten-7α-ol-3-one] | 0.8 ± 0.2 |  | 
C[C@]12CC[C@H]3[C@@H](CCC4=CC(=O)CC[C@@H]43)[C@@H]1CC[C@@H]2O [4-Estren-l7β-ol-3-one] | 3 ± 0.5 |  | 
C[C@H](CCC(=O)O)[C@H]1CC[C@H]2[C@@H]3[C@H](O)C[C@@H]4C[C@H](O)CC[C@]4(C)[C@H]3CC[C@]12C [Chenodeoxycholic acid] |  | weak non-competitive inhibitors | Ki [3]: 8.3 µM; Ki [4]: 10 µM; Ki [5]: 0.017 µM
CC(C)CCC[C@@H](C)[C@H]1CC[C@H]2[C@@H]3CCC4=CC(=O)CC[C@]4(C)[C@H]3CC[C@]12C [Cholestenone] | 0.3 ± 0.1 |  | 
C[C@]12C[C@H](O)[C@H]3[C@@H](CCC4=CC(=O)CC[C@@]43C)[C@@H]1CC[C@@H]2C(=O)CO [Corticosterone] | 2.2 ± 0.5 |  | 
C[C@]12CCC(=O)C=C1CC[C@@H]1[C@@H]2[C@@H](O)C[C@@]2(C)[C@H]1CC[C@]2(O)C(=O)CO [Cortisol] | 13.1 ± 1.8 |  | 
C[C@]12CCC(=O)C=C1CC[C@@H]1[C@@H]2C(=O)C[C@@]2(C)[C@H]1CC[C@]2(O)C(=O)CO [Cortisone] | 15.1 ± 0.3 |  | 
C[C@]12CC[C@H]3[C@@H](CCC4=CC(=O)CC[C@@]43C)[C@@H]1CC[C@H]2O [Epitestosterone] | 2.9 ± 0.6 |  | 
CC(C)(C)NC(=O)[C@H]1CC[C@H]2[C@@H]3CC[C@H]4NC(=O)C=C[C@]4(C)[C@H]3CC[C@]12C [Finasteride] |  | competitive inhibitor | Ki ([6]; competitive inhibition (C)): 0.026 µM; Ki ([6]; mechanism-based inhibition (MBI)): < 0.001 µM
COc1ccc2c(c1)c(CC(=O)O)c(C)n2C(=O)c1ccc(Cl)cc1 [Indomethacin] |  | ineffective | Type of inhibition (5β-reductase) [2]: n.i.
Cc1cccc(Nc2ccccc2C(=O)O)c1C [Mefenamic acid] |  | ineffective | Type of inhibition (5β-reductase) [2]: n.i.; Ki [3]: 0.8 µM
NC(=O)C1=CN([C@@H]2O[C@H](COP(=O)(O)OP(=O)(O)OC[C@H]3O[C@@H](n4cnc5c(N)ncnc54)[C@H](OP(=O)(O)O)[C@@H]3O)[C@@H](O)[C@H]2O)C=CC1 [NADPH] |  |  | Kd [7]: 0.009 µM
C[C@]12CC[C@H]3[C@@H](CCC4=CC(=O)CC[C@@]43C)[C@@H]1CC[C@@H]2O [Testosterone] | 2.7 ± 1.2 |  | 
C[C@H](CCC(=O)O)[C@H]1CC[C@H]2[C@@H]3[C@@H](O)C[C@@H]4C[C@H](O)CC[C@]4(C)[C@H]3CC[C@]12C [Ursodeoxycholic acid] |  | weak non-competitive inhibitors | Ki [3]: 4.9 µM; Ki [4]: 1.3 µM; Ki [5]: 0.011 µM
C[C@]12CCC(=O)C=C1CC[C@@H]1[C@@H]2CC[C@]2(C)C(=O)CC[C@@H]12 [Δ^4-Androstene-3,17-dione] | 0.9 ± 0.2 |  | 
